Measured values taken from patent US10070660B2, “Pet food palatability with antimicrobial properties based on organic acids” (KEMIN INDUSTRIES, INC., priority 2012, dated 2018).

Legend:
[1] = test system: Salmonella enterica subsp. enterica (ATCC 51741); experiment: Microplate assay, inhibition of S. enterica growth in modified TSB (OD600 over 48 h); assay type: cell-based; conditions: microtiter plate, 0.025-0.100% in TSB, 37 C
Experimental: FIG. 1 is a chart of the effect of fumaric acid (0%; 0.025%; 0.050%; 0.100%) on the growth of Salmonella enterica ser. Infantis in modified tryptic soy broth (pH 4.93) for 48 hours at 37° C.
Salmonella enterica subsp. enterica (ATCC® 51741™), was obtained from the American Type Culture Collection (ATCC®) and kept as a frozen stock at −70° C. in Bacto™ Tryptic Soy Broth (TSB) with 20% (w/v) glycerol. One vial of the frozen stock culture was thawed at room temperature and 0.100 mL was transferred to 100 mL TSB (pH 7.2) containing (g/l) pancreatic digest of casein: 17, enzymatic digest of soybean meal: 3, sodium chloride, 5, dipotassium phosphate: 2.5, dextrose, 2.5, then incubated at 37° C. for 24 hours on a platform shaker set at 190 rpm. […]
A 0.20% stock solution of fumaric acid was made by dissolving 0.100 g (w/v) fumaric acid in 50 ml sterile deionized water in a flask. […] The pH of each fumaric-TSB solution was measured (Table 1). […] The microplate was placed in a Versamax Microplate Reader (Molecular Devices) (37° C.) with wavelength set to 600 nm. The optical density (OD600) was read every 2 hours for 48 hours.
Solutions of fumaric acid at three different concentrations (Table 3) were evaluated for inhibition of S. enterica growth in vitro using a microplate assay and measuring optical density over time (FIG. 1).

Salmonella spp. = experiment: Cat palatant solutions (15% w/v) challenged with liquid Salmonella spp. inoculum; assay type: cell-based, Salmonella enterica
Experimental: In the Phase 3 experiment described below, solutions (15% w/v) of cat palatant samples were challenged with a “Low” concentration (1,000 CFU/ml) and a “High” concentration (1,000,000 CFU/ml) of a liquid Salmonella spp. inoculum in an effort to evaluate the antimicrobial effect of each palatant. Salmonella was enumerated from each palatant at three time points after challenge; immediately, 24 hours and 6 days.
(§1) Preparation of palatant samples. Four samples of a cat palatant formulated with varying levels of fumaric acid (Table 6) were aseptically weighed in duplicate sterile 50 ml conical test tubes. To each test tube, 10 ml of sterile deionized water was added and mixed by vortex. The pH of a 5% (w/v) solution of each palatant was also measured (Table 6).
Five Salmonella enterica serovars [S. enterica (ATTC® 51741™), Montevideo (ATCC® 8387™), Typhimurium (ATCC® 14028™), Senftenberg (ATCC® 43845™), Schwarzengrund (4012)] were kept as frozen stocks at −70° C. in Bacto™ Tryptic Soy Broth (TSB) with 20% (w/v) glycerol. One vial of each culture was thawed at room temperature and 0.100 ml was transferred to […] (pH 7.2) containing (g/l) pancreatic digest of casein: 17, enzymatic digest of soybean meal: 3, sodium chloride, 5, dipotassium phosphate: 2.5, dextrose, 2.5, then incubated at 37° C. for 24 hours on a platform shaker set at 190 rpm. One ml of each overnight culture was diluted in 9 ml 0.85% saline and enumerated using a Petroff Hauser Counting Chamber. Each culture was further diluted in 0.85% saline to obtain two concentrations of inoculum; 100,000 CFU/ml (Low) and 100,000,000 CFU/ml (High).
One hundred μl of each Low and High diluted Salmonella inoculum was pipetted into one of each duplicate palatant tubes to obtain one tube with 1,000 CFU/ml (Low) and one tube with […] (High). Samples were analyzed immediately after challenging, 24 hours and 6 days after storage at 25° C.
Each tube of palatant was vortexed prior to serially diluting. Dilutions were pipetted into sterile petri plates. The plates were poured with tempered (45° C.) XLD agar. After solidification, plates were inverted and placed in an incubator (37° C.). Colonies were counted and CFU/ml was calculated. Detection limit of the method was 1 CFU/ml.

[2] = pH of fumaric acid-TSB solutions; assay type: physicochemical
Experimental: A 0.20% stock solution of fumaric acid was made by dissolving 0.100 g (w/v) fumaric acid in 50 ml sterile deionized water in a flask. The 0.20% stock was diluted 1:2 in sterile deionized water to obtain a 0.10% fumaric acid solution, which was then diluted 1:2 to obtain a 0.05% fumaric acid solution. Each fumaric acid stock solution (0.20%, 0.10% and 0.05%) was further diluted 1:2 in TSB (pH 4.9) to yield fumaric acid-TSB solutions of 0.100%, 0.050% and 0.025%. The pH of each fumaric-TSB solution was measured (Table 1). One hundred μl of each fumaric-TSB solution was added to triplicate wells containing 100 μl standardized inoculum. One hundred μl of untreated (0% fumaric) TSB (pH 4.9) was added to triplicate wells containing 100 μl standardized inoculum as a control. The microplate was placed in a Versamax Microplate Reader (Molecular Devices) (37° C.) with wavelength set to 600 nm. The optical density (OD600) was read every 2 hours for 48 hours.

[3] = pH of 5% (w/v) solution of cat palatant formulated with fumaric acid; assay type: physicochemical
Experimental: as §1

## O=C(O)/C=C/C(=O)O [Fumaric Acid, fumaric acid]
[1]
  inhibition of S. enterica growth in vitro (in words): effective antimicrobial agent
Salmonella spp.; High inoculation (1,000,000 CFU/ml), 14% fumaric, day 0
  Salmonella counts: <1 CFU/ml
Salmonella spp.; High inoculation, 14% fumaric, day 1
  Salmonella counts: <1 CFU/ml
Salmonella spp.; High inoculation, 14% fumaric, day 6
  Salmonella counts: <1 CFU/ml
Salmonella spp.; High inoculation, 20% fumaric, day 0
  Salmonella counts: <1 CFU/ml
Salmonella spp.; High inoculation, 20% fumaric, day 1
  Salmonella counts: <1 CFU/ml
Salmonella spp.; High inoculation, 20% fumaric, day 6
  Salmonella counts: <1 CFU/ml
Salmonella spp.; High inoculation, 27% fumaric, day 0
  Salmonella counts: <1 CFU/ml
Salmonella spp.; High inoculation, 27% fumaric, day 1
  Salmonella counts: <1 CFU/ml
Salmonella spp.; High inoculation, 27% fumaric, day 6
  Salmonella counts: <1 CFU/ml
Salmonella spp.; Low inoculation (1,000 CFU/ml), 14% fumaric in palatant, day 0
  Salmonella counts: <1 CFU/ml
Salmonella spp.; Low inoculation, 14% fumaric, day 1
  Salmonella counts: <1 CFU/ml
Salmonella spp.; Low inoculation, 14% fumaric, day 6
  Salmonella counts: <1 CFU/ml
Salmonella spp.; Low inoculation, 20% fumaric, day 0
  Salmonella counts: <1 CFU/ml
Salmonella spp.; Low inoculation, 20% fumaric, day 1
  Salmonella counts: <1 CFU/ml
Salmonella spp.; Low inoculation, 20% fumaric, day 6
  Salmonella counts: <1 CFU/ml
Salmonella spp.; Low inoculation, 27% fumaric, day 0
  Salmonella counts: <1 CFU/ml
Salmonella spp.; Low inoculation, 27% fumaric, day 1
  Salmonella counts: <1 CFU/ml
Salmonella spp.; Low inoculation, 27% fumaric, day 6
  Salmonella counts: <1 CFU/ml
[2]; 0.025% fumaric acid
  pH in TSB: 4.67
[2]; 0.050% fumaric acid
  pH in TSB: 4.42
[2]; 0.100% fumaric acid
  pH in TSB: 4.06
[3]; cat palatant with 14% fumaric acid in formula
  pH: 3.15
[3]; cat palatant with 20% fumaric acid in formula
  pH: 3.01
[3]; cat palatant with 27% fumaric acid in formula
  pH: 2.93
